The text below walks through data of patent publication US20070049538A1, “METHODS FOR USING CUCURBITACIN COMPOUNDS” (SOUTH DAKOTA STATE UNIVERSITY, priority 2005, published 2007).

Series [1] is described as follows: Chromatographic hydrophobicity index (CHI) by RP-HPLC in buffered methanol. Particulars: for CHIMeOH: buffered methanol pH 7.0, Econosil C18 150 mm, Eq. (4). The format is physicochemical. The protocol: (§1) We used Dynamax liquid chromatograph (Varian Chromatography Systems) with PDA-2 photodiode array UV detector, controlled by the Dynamax PC Chromatography Data System (v. 1.9) software and Dynamax dual pump solvent delivery system, model SD-200. […] Cucurbitacins analytical separation was optimized on Alltima C18 (Alltech; 250 mm×4.6 mm, 5 μm) HPLC column, at gradient elution in acetonitrile (ACN, 30-70% ACN in 57 min), and in MeOH (60-75% MeOH in 50 min). Cucurbitacins stock concentration of 10^−2M in DMSO:ethanol (1:1) was standardized against pure cucurbitacin I (Indofine Chemical Company, Hillsborough, N.J.) by analytical HPLC means. Compounds CHI was measured in both ACN, by using Alltima C18 column, and in MeOH, by using Econosil C18 column (Alltech; 150 mm×4.6 mm, 5 μm). Analytical separations were conducted at a flow rate of 1 ml/min. The aqueous phase was buffered for the CHI measurement. For this purpose, solid ammonium acetate (Fisher Sci. Co., Fair Lawn, N.J.) was dissolved in deionized distilled water at 50 mM final concentration and its pH adjusted to 7.0.
A standard mixture of 10 compounds including 19-21, 23-27, aniline (compound 28) and bromobenzene (compound 29), dissolved in MeOH, was injected at five isochratic elution, at 40, 45, 50, 55, and 60% MeOH. Then the mixture was injected at fast gradient elution to establish the correlation from Eq. (1). The fast linear gradient elution was optimized for 30-100% MeOH in aqueous buffer with 10 min runtime.
(§2) Cucurbitacins lipophilicity was measured by RP-HPLC. […] Due to its high viscosity, aqueous MeOH required a shorter column than the one applied for ACN. First, the C18 columns were calibrated against a standard mixture, and the relationships established between the fast gradient tR and φ0 or published CHI (see Eqs. (2)-(4) from Table 2). Second, cucurbitacins were injected at fast gradient elution under similar conditions, and their CHI calculated (Table 4) from Eqs. (2)-(4). Eqs.

The test system of series [2] is HepG2 cells. Description: Cucurbitacins cytotoxicity on HepG2 cells (MTT viability assay). It counts as cell-based, human. The protocol:
HepG2 (human hepatocellular carcinoma, ATCC) cells were grown in EMEM (Gibco, Grand Island, N.Y.) supplemented with 10% fetal bovine serum (FBS), and 1% penicillin/fungizone mixture (Gibco). Thabrew's optimized procedure (Thabrew et al., J. Pharm. Pharmcol. 49 (1994) 1442, the entire disclosure of which is herein incorporated by reference) was followed. Cells were batch cultured for 10 days, then seeded at concentration of 30,000 cells/well in fresh media in 96-well microtiter plastic plates at 37° C. for a day. Then cells were exposed to different concentrations of cucurbitacins at final volume of 100 μl/well. Five-fold serial dilution of compounds was carried out in the plate for five consecutive wells. After 24 h of incubation with chemicals, live cells were visualized using the MTT viability assay (Promega, Madison, Wis.). The absorbance was measured at 570 nm. Negative (without cells) and positive (without test chemicals) controls were also incubated with each plate. […] At least three reproducible experiments were performed per compound with three replicate wells per concentration.
Cells were challenged with cu-curbitacins at various concentrations for a day and then live cells quantified with MTT dye. This period of time measures exclusively compounds cytotoxicity, while longer incubation time may lead to interference from metabolites.
In general terms: Tetrazolium assays rely on reduction of a dye to a coloured formazan, in cell work by metabolically active cells.

The conditions of series [3]: mouse, in vivo; cited from earlier work.
Series [4] can be described thus: Chromatographic hydrophobicity index (CHI) by RP-HPLC in buffered acetonitrile. Particulars: for CHIACN1: buffered acetonitrile pH 7.0, Alltima C18 250 mm, Eq. (2) from isocratic φ0; for CHIACN2: buffered acetonitrile pH 7.0, Eq. (3) calibrated against published CHI. The format is physicochemical. Also noted: key: CHI = φ0 (isocratic hydrophobicity index), = A·tR + B; ACN % scale. The protocol: as §1
All standard compounds were purchased from Acros (Acros Organics, NJ). The chromatographic lipophilicity or hydrophobicity was determined applying Valkó's technique (Valkó et al., Anal. Chem. 69 (1997) 2022, the entire disclosure of which is herein incorporated by reference). A standard mixture of seven compounds was prepared in solution: theophylline (compound 19), benzimidazole (compound 20), acetophenone (compound 21), indole (compound 22), propiophenone (compound 23), butyrophenone (compound 24), and valerophenone (compound 25). […] The retention factor, log k=log((tR-t0)/t0), was calculated for each analyte from five good injections of […] sample. The dead time (t0) was measured by injecting NaNO3 together with the sample. Then, the log k values were plotted against isocratic ACN concentrations to establish the linear regression equations for each analyte. From each straight line the isocratic hydrophobicity index was computed, φ0=(intercept/slope). Further, the calibration mixture was injected at fast gradient elution, 0-22 min 0-100% ACN, and three additional minutes at 100% ACN. The φ0 values for the test compounds were plotted against gradient retention time and the linear equation determined from the following equation: φ0=CHI=AtR+B (1)
The gradient elution conditions were similar to the one from the first approach.
as §2

The subject of series [5] is HSC-T6 cells. Briefly: Serum-driven HSC-T6 proliferation, experiment 1 (4 h challenge, two days drug-free growth). The format is cell-based, rat. Particulars: HSC-T6, 4 h challenge, then two days drug-free media. As for the experimental part:
The proliferation effect of serum on HSC-T6 cells was optimized and cucurbitacin antiproliferative activity was measured. Serum contains a large number of growth factors, hormones and other nutrients, which help cells to grow and multiply. Several trials were conducted. In experiment 1, cells were challenged with cucurbitacin analogs for 4 h and then cells were grown in drug-free media for two additional days.
HSC-T6 cells were photographed under phase-contrast microscope to record possible changes in cell morphology during experiment 1. […] We are monitoring specifically the effect of compound on the cells, cell recovery after 4 h challenge, and relative cell proliferation. […] Live cells are quantified at the end of the assay (row 4) with MTT dye.
(§3) We established several experimental conditions such as 4 hours of incubation time with cucurbitacin, and 2 day cell incubation with fresh media after challenging with cucurbitacin (Exp. 1). Other experiments involved addition of cucurbitacin for 24 hours over starved cells (Exp. 2) vs. proliferating cells (Exp. 3), and one day incubation of cells with fresh media after challenge. […] Because of that, the challenge time was increased to 24 hours (Exp. 2 and 3).
We modified this approach. Our assay included a second control (ZC) supplemented with no serum intended to measure cucurbitacin anti-proliferation effect relative to the number of cells generated during challenge instead of the total number of cells present in each well.

In series [6] the test system is HepG2 cells. Briefly: cells. Particulars: read-out: EC50 cytoprotection; Table 7; HepG2 against CCl4 toxicity; estimated. An excerpt:
Experimental conditions were standardized on silybin. […]
The ratio of IC50-to-EC50 (hereafter T/A) is also indicated in this table, which gives the margin between toxic and cytoprotective concentrations.

For series [7], the system named is HSC-T6 cells. Briefly: Cytotoxicity on HSC-T6 cells (experiment 3). The format is cell-based, rat. Particulars: read-out: Experiment 3 IC50 (T). An excerpt: Cytotoxicity of all cucurbitacin analogs was additionally measured in experiment 3 (Table 8).
The test system of series [8] is HSC-T6 cells. Briefly: Serum-driven HSC-T6 proliferation, experiment 3 (24 h, proliferating cells). It counts as cell-based, rat. Particulars: HSC-T6, 24 h, proliferating cells; read-out: Experiment 3 EC50 (A). As for the experimental part: (§4) To overcome this problem, the amount of incubation time was increased to 24 h, and cucurbitacin activity measured on starved (Exp. 2) or proliferative (Exp. 3) cells (Table 8). Cells turned quiescent when serum was not supplemented for one day (Exp. 2). Activity of a few compounds was monitored on quiescent cells, and their activity compared to the ones measured on proliferating cells (Exp. 3).
as §3, with “challenge. The 4 hour incubation period with cucurbitacin triggered anti-proliferation effect. This effect, however, was hindered by a second cycle of cell proliferation during the two-day cell growth period (see silybin, E and I glucosides, and for I-nPr).” for “challenge.”
(§5) In experiment 3, only 40% of the cells divided. The ratio of EC50 values for exp. 2 and exp. 3 varied between 3.6 and 12.7. This may indicate differential cytotoxicity of silybin and cucurbitacin analogs over quiescent and active stellate cells. In other words, compounds show higher anti-proliferative activity on active cells than on quiescent cells.

The test system of series [9] is HSC-T6 cells. Description: Serum-driven HSC-T6 proliferation, experiment 2 (24 h, starved/quiescent cells). It counts as cell-based, rat. Particulars: HSC-T6, 24 h, starved (quiescent) cells; read-out: Experiment 2 EC50. As for the experimental part:
as §4
as §3, with “challenge. The 4 hour incubation period with cucurbitacin triggered anti-proliferation effect. This effect, however, was hindered by a second cycle of cell proliferation during the two-day cell growth period (see silybin, E and I glucosides, and for I-nPr).” for “challenge.”
as §5

For series [10], the system named is lipid peroxidation of microsomal suspension. Briefly: Microsomal Lipid Peroxidation Assay. Particulars: at 0.1 mM, both chemical and enzymatic assays. It counts as biochemical. As for the experimental part: Cucurbitacin anti-lipid peroxidation was studied by the Microsomal Lipid Peroxidation Assay (Engineer et al., Biochemical Pharmacology 38(8): 1279-1285, 1989). Lipid peroxidation of microsomal suspension was induced both enzymatically and chemically and validated on the standard compound quercetin. […] Activity of 3 cucurbitacin analogs, B, E, and E-Me-ether was monitored at 0.1 mM indicating no inhibition in either the chemical or enzymatic assay.

The nature of series [11]: ABTS*+ Radical Cation Decolorization Assay. Particulars: read-out: concentration of 50% inhibition. As for the experimental part: Cucurbitacin B activity was monitored at 50 μM, 100 μM, and 1.8 mM. The time interval was expanded up to 2 hours in case cucurbitacin B was reacting slowly.
In series [12] the test system is HepG2 cells. The format is cell-based, human.
Procedure: The activity of two toxins was studied first on HepG2 cells—bromobenzene (BB) and CCl4. Cells were challenged with the toxins at different concentration levels. Precipitate formation was observed when BB was diluted with media prior to addition to the cells; therefore, both the precipitate and the supernatant were added separately over cells to study their toxic effect.
For series [13] the following is noted: in vivo; cited from earlier work.
Series [14] in a line: DPPH* Stable Free Radical Scavenging Assay. As for the experimental part: Cucurbitacin antioxidant activity was studied first by the DPPH* Stable Free Radical Scavenging Assay (Cotelle et al., Free radical Biology & Medicine 20(1): 35-43, 1996). Experimental conditions were optimized on the standard compound ascorbic acid. Data indicated 30% activity at 50 μM concentration, and 100% activity at 100 μM for ascorbic acid. While the original assay required 10 minutes incubation time for the reaction to occur, this time was increased up to 30 minutes in case cucurbitacin were reacting slower than other reagents.
In general terms: DPPH is a stable violet radical that fades when it is reduced.

Like-named read-outs stand apart in the source and are kept apart here.

The term EC50 denotes the concentration at which the effect is half-maximal. Molecule `CC(C)(O)/C=C/C(=O)[C@](C)(O)[C@H]1[C@H](O)C[C@@]2(C)[C@@H]3CC=C4[C@@H](C[C@H](O)C(=O)C4(C)C)[C@]3(C)C(=O)C[C@]12C` [D, cucurbitacin D] gave a CHIMeOH in series [1] of 60.40. For the same molecule, the IC50 in [2] (Table 4, 24 h incubation, MTT) was determined as 77.3 µM; in series [2] (Table 5), 77.3 ± 8.7 µM; in series [2] (Table 7) it was 77.3 µM; in [7], 26 µM. Further, in [3], the capillary permeability result is “enhanced capillary permeability”. In [4], the CHIACN1 is given as 58.31. In [4], the CHIACN2 worked out at 55.83. The EC50 in series [5] is 3.8 µM; in [6] it was 9 µM; in series [8], 70 nM.

The molecule `COC1=CC2C(=CCC3C2(C)C(=O)CC2(C)C(C(C)(O)C(=O)CCC(C)(C)O)C(O)CC32C)C(C)(C)C1=O` [L-Me] displayed a CHIMeOH in series [1] of 66.58. In addition, the CHIACN1 in series [4] amounted to 64.84. The CHIACN2 in series [4] turned out to be 65.95. Further, the EC50 was 1000 nM in series [9], 10.8 µM in [5], 5 µM in series [6] and 180 nM in series [8]. Also, in [7], the IC50 was determined as 6.7 µM.

Turning to `O=c1c(O)c(-c2ccc(O)c(O)c2)oc2cc(O)cc(O)c12` [quercetin, reference compound], in series [10], the “inhibition of lipid peroxidation” value turned out to be 100%.

For the molecule `Cc1c(C)c2c(c(C)c1O)CCC(C)(C(=O)O)O2` (centres unmarked) [trolox, reference compound], the IC50 in series [11] was found to be 580 µM.

Usually cell viability stands for a per cent measure of how many cells are alive, often set against a control. As to `Brc1ccccc1` [Bromobenzene (29), bromobenzene, reference compound], the cell viability result in series [12] (HepG2, toxin at 20 nM) is reported as “no viability”. For the same molecule, in series [1] (standard compounds, isochratic and gradient elution of standard mixture), the “CHIMeOH (b)” value is recorded as 69.43 + 0.07.

As for `CC(=O)OC(C)(C)/C=C/C(=O)[C@@](C)(O)[C@H]1[C@H](O)C[C@@]2(C)[C@@H]3CC=C4[C@@H](CC(=O)[C@@H](O)C4(C)C)[C@]3(C)C(=O)C[C@]12C` [iso-B, iso-cucurbitacin B], the CHIMeOH in [1] is reported as 68.50. Moreover, in series [4], the CHIACN1 is 72.86 and the CHIACN2 is listed as 78.38. Also, the “protective and preventive activity” value in series [13] was “significantly reducing serum enzymes level, steatosis, inflammation, and experimental cholestasis”.

For `ClC(Cl)(Cl)Cl` [CCl4], in [12] (HepG2, toxin at 4.5×10^−3 M), the cell viability is listed as around 50%.

Turning to `COC1=CC2C(=CCC3C2(C)C(=O)CC2(C)C(C(C)(O)C(=O)C=CC(C)(C)O)C(O)CC32C)C(C)(C)C1=O` (centres unmarked) [I-Me], in series [1], the CHIMeOH is 66.58. Moreover, the IC50 in series [2] (Table 4, 24 h incubation, MTT) came to 15 µM; in [2] (Table 5), 15 ± 5.6 µM; in series [2] (Table 7), 15 µM; in series [7] it was 6.4 µM. Also, in [4], the CHIACN1 is on record as 64.84. Moreover, the CHIACN2 in [4] is on record as 65.95. In addition, the EC50 in [9] was 1400 nM; in [5], 3.4 µM; in series [6], 5.3 µM; in [8] it was 110 nM.

With `O=C1O[C@H]([C@@H](O)CO)C(O)=C1O` [ascorbic acid], the DPPH activity is 30% in [14] (at 50 μM) and 100% in series [14] (at 100 μM).
